Patent US20240026086A1, “POLYPHENOL DERIVATIVE AND POLYMER MATERIAL” (TOPPAN INC., priority 2020, published 2024)

Tested on: E. coli
Assay: Antibacterial test of coating films on glass substrate in accordance with JIS 22801
Type: cell-based
Details: against E. coli
Procedure: The polyphenol derivatives (polyphenol derivatives 1 to 4) in Examples 1 to 4 and the tannic acid in Comparative Example 1 were each applied by the above method onto a 5 cm×5 cm glass substrate at a weight of 1.2 mg/cm 2 to yield a coating film. The glass substrate samples in Examples and Comparative Example each having the coating film formed by the above method were subjected to antibacterial test by a method in accordance with JIS 22801, and antibacterial activity values (against E. coli) were determined.

O=C(OC[C@H]1O[C@@H](OC(=O)c2cc(O)c(O)c(OC(=O)c3cc(O)c(O)c(O)c3)c2)[C@H](OC(=O)c2cc(O)c(O)c(OC(=O)c3cc(O)c(O)c(O)c3)c2)[C@@H](OC(=O)c2cc(O)c(O)c(OC(=O)c3cc(O)c(O)c(O)c3)c2)[C@@H]1OC(=O)c1cc(O)c(O)c(OC(=O)c2cc(O)c(O)c(O)c2)c1)c1cc(O)c(O)c(OC(=O)c2cc(O)c(O)c(O)c2)c1 [compound 1, tannic acid]
Antibacterial test (antibacterial activity value) (coating film 1.2 mg/cm 2 on 5 cm×5 cm glass substrate): >5.8 | antibacterial activity (in words) (coating film): antibacterial activity was sufficiently achieved
